Entries after “also recorded” stand apart in the source; their conditions may differ.
What was measured:
[1] = system: human umbilical vein endothelial cells (HUVEC); assay: Uptake of fluorophore-labeled cow's milk exosomes into HUVECs; type: cell-based
[2] = Bioavailability and distribution of fluorophore-labeled RNA and microRNA cargos in bovine milk exosomes; type: in vivo, Balb/c mice; details: for tissue distribution of fluorophore-labeled microRNA transfected into milk exosomes: oral gavage, 6 hours
Procedure: Exosomes were isolated from bovine milk using ultracentrifugation.
Labeling of exosomes and RNAs with synthetic fluorophores. […] All exosome preparations were utilized within 2 hours.

[3] = Bovine milk exosomes and miRNAs in embryos and placentas of pregnant mice at E16.5; type: in vivo
From the text: The bioavailability of bovine milk exosomes and miRNAs in fetal circulation of pregnant mice was examined. DiR-labelled bovine milk exosomes (or unlabeled control bovine milk exosomes) were adminstered to pregnant mice at embryonic day 16.5 (E16.5) to embryos and placentas. […] Three independent experiments per each treatment and control.

[4] = system: rat small intestinal IEC-6 cells; assay: Uptake of FM 4-64-labeled bovine milk exosomes into IEC-6 cells; type: cell-based; details: exosomes treated with 0.105 mMol/L trypsin for 30 mins
[5] = mouse, in vivo
Procedure: Exosomes were isolated from bovine milk using ultracentrifugation. Exosome membranes were labeled using the fluorophore, DiR, as described elsewhere herein. […] Identity, integrity, fine dispersion, and count of exosomes were assessed using transmission electron microscopy, western blots, and nanoparticle tracker (not shown). Exosomes were administered orally by gavage (1×10^12 exosomes/g) in BALB/c mice. Absorption and distribution of exosomes and their cargos was monitored at timed intervals for up to 24 h using an iBox® Small Animal Imaging system and LiCor Odyssey CLx. At timed intervals, mice were euthanized and various tissues were excised and collected for densitometry analysis using VisionWorks®LS and Image Studio software.
Studies were conducted in female Balb/c mice (Jackson Laboratory, stock number 000651), ages 8 to 20 weeks, unless noted otherwise.
Exosomes were labeled with the lipophilic fluorophore 1,1-dioctadecyl-3,3,3,3-tetrametylindotricarbocyanine iodide (DiR) as described elsewhere (see, e.g., Wiklander et al., J. Extracell. Vesicles 4:26316 (2015)). […] Free dyes and extra-exosomal synthetic microRNAs were removed by two PBS washes (120,000×g for 60 minutes), and 1×10^12 exosomes were administered per g body weight in a volume of less than 150 μl. […] All exosome preparations were utilized within 2 hours.

[6] = system: human colon carcinoma Caco-2 cells; assay: Uptake of FM 4-64-labeled bovine milk exosomes into Caco-2 cells; details: for effect on exosome transport: milk exosomes treated with protease
Procedure: Exosomes were isolated from bovine milk by differential centrifugation and authenticated as recommended by International Society for Extracellular Vesicles. […] Controls were incubated with solvent. Exosomes were labeled with FM4-64, and unlabeled fluorophore was removed. […] Transport kinetics were modelled using the Michaelis-Menten equation. One-way ANOVA and Bonferroni's multiple comparison were used for statistical analyses.
Caco-2 cells and IEC-6 cells were seeded at a density of 20,000 and 7000 cells/well, respectively, in 96-well plates, and allowed to adhere for 48 h, when cells were 75% confluent. The exosomes were labeled with the fluorophore, FM 4-64 (Molecular Probes). One microliter of a stock solution of FM 4-64 (5.9 mmol/L) was added to 1 mL of exosome suspension and incubated for 15 min at 37° C., and excess FM 4-64 was removed by ultracentrifugation at 120,000 3 g at 4° C. for 90 min. Transport studies were conducted using FM4-64-labeled exosomes using 3-110 mg of exosomal protein/well (Caco-2 cells) or 27-652 mg of exosomal protein/well (IEC-6 cells) and incubating cells for various periods of time to assess saturation kinetics; blanks were created using solvent. Assays were calibrated by quantifying the fluorescence of a known mass of exosomes labeled with FM 4-64. Exosome uptake was analyzed by measuring the cell fluorescence at 515 (excitation) and 640 nm (emission) using a Biotek FLx800 plate reader (BioTek Instru-ments). Fluorescence readings were corrected for cell autofluorescence by subtracting signals measured in cells incubated with exosome-depleted media. Transport kinetics was modeled using the Michaelis-Menten equation and nonlinear regression; modeling was conducted using GraphPad Prism 6.0 (GraphPad Software). […] Subsequent transport studies were conducted using incubation times of 8 hours for Caco-2 cells (FIG. 34B).
Transport kinetics was modeled using the Michaelis-Menten equation.

## C=C1[C@@H](C)[C@H]2[C@H](Cc3ccccc3)NC(=O)[C@]23[C@H](OC(C)=O)/C=C/[C@@](C)(O)C(=O)[C@@H](C)C/C=C/[C@H]3[C@@H]1O [cytochalasin D]
[1]; exosomes treated with proteinase K, or transport in presence of D-galactose, excess unlabeled exosomes or cytochalasin D
  decrease of transport rates compared with controls: 50%

## MiR-34a: synthetic IRDye-labeled microRNA transfected into bovine milk exosomes; uggcagugucuuagcugguugu, SEQ ID NO: 8 (UGGCAGUGUCUUAGCUGGUUGU; IRDye fluorophore label, position not given here, synthetic)
[2]
  tissue distribution of fluorophore-labeled microRNA transfected into milk exosomes: brain

## miR-320a: synthetic IRDye-labeled microRNA transfected into bovine milk exosomes; aaaagcuggguugagagggcga, SEQ ID NO: 10 (AAAAGCUGGGUUGAGAGGGCGA; IRDye fluorophore label, position not given here, synthetic)
[2]; 3 hours after intravenous injection
  tissue distribution of IRDye-labeled microRNA transfected into milk exosomes: accumulated primarily in liver with small amounts being detectable in kidneys, lungs and spleen 3 hours after intravenous injection
[2]; hepatic densitometry 3 hours after intravenous injection vs 6 hours after oral gavage
  apparent bioavailability: 25.4±8.7%
[2]
  tissue distribution of fluorophore-labeled microRNA transfected into milk exosomes: accumulated primarily in liver, spleen and kidneys 6 hours after oral gavage

## miR-30d: microRNA loaded into bovine milk exosomes; uguaaacauccccgacuggaagcu, SEQ ID NO: 13 (UGUAAACAUCCCCGACUGGAAGCU; listed as RNA, further chemistry not given here)
[3]
  presence in embryo and placenta: present in both embryo and placenta

## miR-375: synthetic 5ATT0633N-labeled microRNA, with or without quencher 3IAbRQSp, transfected into milk exosomes; uuuuguucguucggcucgcguga, SEQ ID NO: 11 (UUUUGUUCGUUCGGCUCGCGUGA; listed as RNA, further chemistry not given here)
[2]; administered orally, signal indicates degradation
  signal of microRNA conjugated to fluorophore and quencher: only a minimal signal was detected in heart and spleen
[2]
  tissue distribution of fluorophore-labeled microRNA transfected into milk exosomes: the signal localized primarily to the intestines, with minor signal being detectable in kidneys, brain and liver; also recorded: accumulated in brain, liver, kidneys and intestinal mucosa in mice

## trypsin
[4]
  exosome uptake: 82%+8%
[5]
  tissue accumulation of exosomes depleted of surface proteins: reduced accumulation of exosomes in the liver and lungs after intravenous injection
[6]; exosomes treated with protease, control 88±1, cell type not named at the place
  transport rates (Vmax): 40±0.6 arbitrary units
[6]
  effect on exosome transport: significant decrease in exosome transport into CaCo-2 cells

## Glu-C: serine protease cleaving at glutamic acid and aspartic acid residues
[6]
  effect on exosome transport: significant decrease in exosome transport into CaCo-2 cells

## O=C[C@H](O)[C@@H](O)[C@@H](O)[C@H](O)CO [D-galactose]
[1]; 150 mmol/L, pretreated 30 min
  effect of carbohydrate competitor on exosome uptake: caused a significant decrease in exosome uptake
